#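 96-well plates; 48 h exposure; 5 concentrations. Endpoints by linear interpolation between flanking doses. Not reached: highest tested concentration assigned. Here, GI50 denotes the concentration required for 50% inhibition of growth.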 Active and inactive are the calls of the source. Rule as the data show it: active = GI50 up to about 1.1 µM and inactive = higher.
# Columns and labels:
# Test in all cases: DTP human tumour cell line panel, 48 h
# [1] = system: 786-0
# [2] = system: A549
# [3] = system: ACHN
# [4] = system: COLO 205
# [5] = system: DMS-114
# [6] = system: DMS-273
# [7] = system: HCT-15
# [8] = system: HL-60
# [9] = system: HT-29
# [10] = system: IGROV-1
# [11] = system: KM-20L2
# [12] = system: LOX IMVI
# [13] = system: LXFL 529
# [14] = system: M14
# [15] = system: M19-MEL
# [16] = system: MOLT-4
# [17] = system: NCI-H23
# [18] = system: NCI-H460
# [19] = system: NCI-H522
# [20] = system: OVCAR-3
# [21] = system: OVCAR-5
# [22] = system: OVCAR-8
# [23] = system: RPMI-8226
# [24] = system: RXF 393
# [25] = system: SK-MEL-28
# [26] = system: SK-MEL-5
# [27] = system: SK-OV-3
# [28] = system: SN12C
# [29] = system: SNB-75
# [30] = system: SR
# [31] = system: TK-10
# [32] = system: UACC-257
# [33] = system: UACC-62
# [34] = system: CAKI-1
# [35] = system: CCRF-CEM
# [36] = system: DLD-1
# [37] = system: HCC 2998
# [38] = system: HCT-116
# [39] = system: HOP-62
# [40] = system: HOP-92
# [41] = system: K562
# [42] = system: KM12
# [43] = system: Malme-3M
# [44] = system: NCI-H226
# [45] = system: OVCAR-4
# [46] = system: SF-268
# [47] = system: SF-295
# [48] = system: SF-539
# [49] = system: SK-MEL-2
# [50] = system: SNB-19
# [51] = system: SW-620
# [52] = system: U-251
# [53] = system: UO-31
# [54] = system: A498
# [55] = system: EKVX
# [56] = system: HOP-18
# [57] = system: SNB-78
smiles,measurement,setting,value
CC1=C[P+](Cc2ccccc2)(c2ccccc2)CC1 (configuration not stated),GI50,[1],> 100 µM (inactive)
same,GI50,[2],> 100 µM (inactive)
same,GI50,[3],> 100 µM (inactive)
same,GI50,[4],41.5 µM (inactive)
same,GI50,[5],35.2 µM (inactive)
same,GI50,[6],> 100 µM (inactive)
same,GI50,[7],88.1 µM
same,GI50,[8],36.3 µM (inactive)
same,GI50,[9],77.3 µM (inactive)
same,GI50,[10],96.8 µM (inactive)
same,GI50,[11],94.2 µM (inactive)
same,GI50,[12],> 100 µM (inactive)
same,GI50,[13],23.3 µM (inactive)
same,GI50,[14],77.6 µM (inactive)
same,GI50,[15],29.9 µM (inactive)
same,GI50,[16],> 100 µM (inactive)
same,GI50,[17],> 100 µM (inactive)
same,GI50,[18],> 100 µM (inactive)
same,GI50,[19],65.2 µM (inactive)
same,GI50,[20],47.8 µM (inactive)
same,GI50,[21],> 100 µM (inactive)
same,GI50,[22],> 100 µM (inactive)
same,GI50,[23],28.6 µM (inactive)
same,GI50,[24],> 100 µM (inactive)
same,GI50,[25],81.1 µM (inactive)
same,GI50,[26],27 µM (inactive)
same,GI50,[27],> 100 µM (inactive)
same,GI50,[28],> 100 µM (inactive)
same,GI50,[29],> 100 µM (inactive)
same,GI50,[30],57 µM (inactive)
same,GI50,[31],98.9 µM (inactive)
same,GI50,[32],21.5 µM (inactive)
same,GI50,[33],66.5 µM (inactive)
c1csc(C[N+]23CN4CN(CN(C4)C2)C3)c1,GI50,[1],22.6 µM (inactive)
same,GI50,[2],30 µM (inactive)
same,GI50,[3],37.5 µM (inactive)
same,GI50,[34],25.8 µM (inactive)
same,GI50,[35],18.3 µM (inactive)
same,GI50,[4],20 µM (inactive)
same,GI50,[36],33.7 µM (inactive)
same,GI50,[5],20.6 µM (inactive)
same,GI50,[6],18.9 µM (inactive)
same,GI50,[37],19.3 µM (inactive)
same,GI50,[38],> 100 µM (inactive)
same,GI50,[7],28.2 µM
same,GI50,[8],14.7 µM (inactive)
same,GI50,[39],21.4 µM (inactive)
same,GI50,[40],22.7 µM (inactive)
same,GI50,[9],> 100 µM (inactive)
same,GI50,[10],29.9 µM (inactive)
same,GI50,[41],20 µM (inactive)
same,GI50,[11],26.5 µM (inactive)
same,GI50,[42],> 100 µM (inactive)
same,GI50,[13],20.3 µM (inactive)
same,GI50,[14],17 µM (inactive)
same,GI50,[15],25.9 µM (inactive)
same,GI50,[16],21.6 µM (inactive)
same,GI50,[43],18.3 µM (inactive)
same,GI50,[44],> 100 µM (inactive)
same,GI50,[17],> 100 µM (inactive)
same,GI50,[18],23.2 µM (inactive)
same,GI50,[19],> 100 µM (inactive)
same,GI50,[20],> 100 µM (inactive)
same,GI50,[45],24.3 µM (inactive)
same,GI50,[21],26.9 µM (inactive)
same,GI50,[22],28.2 µM (inactive)
same,GI50,[23],18.9 µM (inactive)
same,GI50,[46],> 100 µM (inactive)
same,GI50,[47],> 100 µM (inactive)
same,GI50,[48],> 100 µM (inactive)
same,GI50,[25],> 100 µM (inactive)
same,GI50,[49],19.7 µM (inactive)
same,GI50,[26],19.3 µM (inactive)
same,GI50,[50],> 100 µM (inactive)
same,GI50,[29],> 100 µM (inactive)
same,GI50,[30],15.3 µM (inactive)
same,GI50,[51],15.7 µM (inactive)
same,GI50,[31],26.4 µM (inactive)
same,GI50,[52],22.3 µM (inactive)
same,GI50,[32],> 100 µM (inactive)
same,GI50,[33],22.6 µM (inactive)
same,GI50,[53],> 100 µM (inactive)
Cc1c(Cl)ccc2c1NC(=O)C2(O)C1Cc2ccccc2C1=O (configuration not stated),GI50,[1],41.3 µM (inactive)
same,GI50,[54],> 100 µM (inactive)
same,GI50,[2],> 100 µM (inactive)
same,GI50,[3],> 100 µM (inactive)
same,GI50,[34],> 100 µM (inactive)
same,GI50,[35],26.1 µM (inactive)
same,GI50,[4],> 100 µM (inactive)
same,GI50,[36],> 100 µM (inactive)
same,GI50,[5],53.6 µM (inactive)
same,GI50,[55],> 100 µM (inactive)
same,GI50,[37],32.7 µM (inactive)
same,GI50,[38],62.7 µM (inactive)
same,GI50,[7],> 100 µM
same,GI50,[8],21.2 µM (inactive)
same,GI50,[56],> 100 µM (inactive)
same,GI50,[39],> 100 µM (inactive)
same,GI50,[40],> 100 µM (inactive)
same,GI50,[9],> 100 µM (inactive)
same,GI50,[10],> 100 µM (inactive)
same,GI50,[41],62.1 µM (inactive)
same,GI50,[11],> 100 µM (inactive)
same,GI50,[42],> 100 µM (inactive)
same,GI50,[12],> 100 µM (inactive)
same,GI50,[13],41.1 µM (inactive)
same,GI50,[14],> 100 µM (inactive)
same,GI50,[15],> 100 µM (inactive)
same,GI50,[16],25.2 µM (inactive)
same,GI50,[43],> 100 µM (inactive)
same,GI50,[44],> 100 µM (inactive)
same,GI50,[17],> 100 µM (inactive)
same,GI50,[18],> 100 µM (inactive)
same,GI50,[19],> 100 µM (inactive)
same,GI50,[20],> 100 µM (inactive)
same,GI50,[45],86.5 µM (inactive)
same,GI50,[21],> 100 µM (inactive)
same,GI50,[22],11.2 µM (inactive)
same,GI50,[23],42.5 µM (inactive)
same,GI50,[24],57.9 µM (inactive)
same,GI50,[46],> 100 µM (inactive)
same,GI50,[47],> 100 µM (inactive)
same,GI50,[48],> 100 µM (inactive)
same,GI50,[25],> 100 µM (inactive)
same,GI50,[49],> 100 µM (inactive)
same,GI50,[26],> 100 µM (inactive)
same,GI50,[27],> 100 µM (inactive)
same,GI50,[28],> 100 µM (inactive)
same,GI50,[50],> 100 µM (inactive)
same,GI50,[57],> 100 µM (inactive)
same,GI50,[30],27.9 µM (inactive)
same,GI50,[51],> 100 µM (inactive)
same,GI50,[31],> 100 µM (inactive)
same,GI50,[52],27.7 µM (inactive)
same,GI50,[32],> 100 µM (inactive)
same,GI50,[33],72.6 µM (inactive)
same,GI50,[53],92.9 µM (inactive)
